Laboratory results published in patent publication US7186825B2, “Conformationally restricted polyamine analogs as disease therapies” (Cellgate, Inc., priority 1999, dated 2007).
Counter-ions that a name gives are not always drawn. Like-named read-outs stand apart in the source and are kept apart here.

Assays:
[1] = test system: human prostate cancer cells LNCAP; experiment: MTT assay, survival/growth of cultured human prostate cancer cells LNCAP; assay type: cell-based; details: figure legends, survival of cultured LNCAP cells, six days after drug treatment, read-out: ED50 (the source's name)
Experimental: (§1) Human breast cancer cell line MCF7 was grown in Richter's Improved Modified Eagle's Medium supplemented with 10% fetal bovine serum (FBS) and 2.2 g/L sodium bicarbonate. Human brain tumor cell line U251 MG-NCI was grown in Dulbecco's Modified Eagle's Medium supplemented with 10% FBS. Human lung cancer cell line A549 was grown in Ham's F-12K medium (Cellgro, Mediatech, Inc., VA), supplemented with 10% FBS and 2 mM L-glutamine. Human colon cancer cell line HT29 was cultured in McCoy's 5A medium (Gibco, BRL, Gaithersburg, Md.) supplemented with 10% FBS. Human prostate cancer cell lines PC-3, LNCAP and DuPro were grown in RPMI 1640 Medium (Cellgro, Mediatech, Inc., VA) supplemented with 10% FBS. Another human prostate cancer cell line DU145 was grown in Dulbecco's Modified Eagle's Medium (Gibco, BRL, Gaithersburg, Md.) supplemented with 5% FBS. The A549, MCF7, PC3, LNCAP and DuPro cell lines were cultured in 100 units/mL penicillin and 100 μg/mL streptomycin. HT29 and U251MG cell lines were grown in 50 μg/mL gentamycin (Gibco, BRL, Gaithersburg, Md.). DU145 cell line was maintained in 1% antibitic-antimycotic solution (Sigma, St. Louis, Mo.). The cell cultures were maintained at 37° C. in 5% CO2/95% humidified air. DuPro cells were obtained from M. Eileen Dolan, University of Chicago. All other cells are available from the American Type Culture Collection, Rockville, Md.
(§2) A conventional MTT assay was used to evaluate percent cell survival. Exponentially growing monolayer cells were plated in 96-well plates at a density of 500 cells per well and allowed to grow for 24 hours. Serial dilutions of the drugs were added to the wells. Six days after drug treatment, 25 μl of MTT solution (5 mg/ml) was added to each well and incubated for 4 hours at 37° C. Then 100 μl of lysis buffer (20% sodium dodecyl sulfate, 50% DMF, and 0.8% acetic acid, pH 4.7) was added to each well and incubated for an additional 22 hours. A microplate reader (“EMAX”-brand, Molecular Devices, Sunnyvale, Calif.) set at 570 nm was used to determine the optical density of the cultures. Results are expressed as a ratio of the optical density in drug-treated wells to the optical density in wells treated with vehicle only.
(§3) Using the protocols of Example 2, the porphyrin-polyamine conjugates were tested for activity in vitro in various cancer cell lines.

[2] = test system: human colon cancer cells HT29; experiment: MTT assay, survival/growth of cultured human colon cancer cells HT29; assay type: cell-based; details: for EC50: figure legends, survival of cultured HT29 cells, MTT, six days after drug treatment, read-out: ED50 (the source's name); for IC50: read-out: concentration needed for 50% growth inhibition (ID50), Table 3, HT-29
Experimental: (§4) As shown in Table 3 and FIGS. 1–32, several novel conformationally restricted polyamine analogs were tested for anti-proliferative properties against cancer cells.
as §1, §2

[3] = test system: human prostate cancer cells PC3; experiment: MTT assay, survival/growth of cultured human prostate cancer cells PC3; assay type: cell-based; details: for EC50: figure legends, survival of cultured PC3 cells, MTT, six days after drug treatment, read-out: ED50 (the source's name); for IC50: read-out: concentration needed for 50% growth inhibition (ID50), Table 3, PC-3
Experimental: as §1, §2, §3

[4] = test system: human lung cancer cells A549; experiment: MTT assay, survival/growth of cultured human lung cancer cells A549; assay type: cell-based; details: for EC50: figure legends, survival of cultured A549 cells, MTT, six days after drug treatment, read-out: ED50 (the source's name); for IC50: read-out: concentration needed for 50% growth inhibition (ID50); for IC50 / concentration needed for 50% growth inhibition (ID50): Table 3, A549
Experimental: as §4, §1, §2

[5] = test system: human prostate cancer cells DU145; experiment: MTT assay, survival/growth of cultured human prostate cancer cells DU145; assay type: cell-based; details: for EC50: figure legends, survival of cultured DU145 cells, MTT, six days after drug treatment, read-out: ED50 (the source's name); for IC50: read-out: concentration needed for 50% growth inhibition (ID50), Table 3, DU-145
Experimental: as §1, §2, §3

[6] = test system: human breast cancer cells MCF7; experiment: MTT assay, survival/growth of cultured human breast cancer cells MCF7; assay type: cell-based; details: for EC50: figure legends, survival of cultured MCF7 cells, MTT, six days after drug treatment, read-out: ED50 (the source's name); for IC50: read-out: concentration needed for 50% growth inhibition (ID50), Table 3, MCF7
Experimental: as §4, §1, §2

[7] = test system: human prostate cancer cells DUPRO; experiment: MTT assay, survival/growth of cultured human prostate cancer cells DUPRO; assay type: cell-based; details: for EC50: figure legends, survival of cultured DUPRO cells, MTT, six days after drug treatment, read-out: ED50 (the source's name); for IC50: read-out: concentration needed for 50% growth inhibition (ID50), Table 3, DUPRO
Experimental: as §1, §2, §3

[8] = test system: human brain tumor cells U251 MG NCI; experiment: MTT assay, survival/growth of cultured human brain tumor cells U251 MG NCI; assay type: cell-based; details: for EC50: figure legends, survival of cultured U251 MG NCI cells, MTT, six days after drug treatment, read-out: ED50 (the source's name); for IC50: read-out: concentration needed for 50% growth inhibition (ID50), Table 3, U251MG
Experimental: as §1, §2

CCNCCCCNCCCCNCCCCNCCCC1=C(C)c2cc3[nH]c(cc4nc(cc5[nH]c(cc1n2)c(CCCNCCCCNCCCCNCCCCNCC)c5C)C(CC)=C4C)c(CC)c3C (as salt: hydrochloride) [SL-11202]
melting point: 200 °C

CCNCCCCNCCCCNCCCCNCC [BE-444, N1,N14-bis(ethyl) homospermine, reference compound]
EC50 [1]: 100 nM | EC50 [2]: 930 nM | EC50 [3]: 700 nM | EC50 [4]: 150 nM | EC50 [5]: 30 nM

CCNCCCCNCCCCNCCCCNCCCCNCC [BE-4444, 1,19-bis(ethylamino)-5,10,15-triazanonadecane, reference compound]
EC50 ([6]; Homo sapiens, 144 h): > 31200 nM | IC50 ([6]; Homo sapiens): > 31200 nM | EC50 ([1]; Homo sapiens, 144 h): 140 nM | EC50 ([2]; Homo sapiens, HT-29, 144 h): 500 nM | IC50 ([2]; Homo sapiens): 800 nM | EC50 ([3]; Homo sapiens, PC-3, 144 h): 600 nM | IC50 ([3]; Homo sapiens): 540 nM | EC50 ([4]; Homo sapiens, 144 h): > 31200 nM | IC50 ([4]; Homo sapiens): 400 nM | EC50 ([5]; Homo sapiens, DU-145, 144 h): 70 nM | IC50 ([5]; Homo sapiens): 70 nM | EC50 ([7]; Homo sapiens, 144 h): 200 nM | IC50 ([7]; Homo sapiens): 200 nM

CCNCCCCNCC1CC1CNCCCCNCC (centres unmarked) [SL-11093]
EC50 [6]: 660 nM | IC50 [6]: 660 nM | EC50 [8]: 70 nM | EC50 [1]: 210 nM | IC50 [2]: 400 nM | EC50 [3]: 1600 nM | IC50 [3]: 14300 nM | EC50 [4]: 260 nM | IC50 [4]: 260 nM | EC50 [5]: 16 nM | IC50 [5]: 10 nM | IC50 [7]: 60 nM

CCNCCCCNCC1CC1CNCCCCNCC (centres unmarked) [SL-11098]
IC50 [6]: > 31200 nM | EC50 [8]: 100 nM | IC50 [8]: 100 nM | EC50 [1]: 170 nM | IC50 [2]: 400 nM | EC50 [3]: 1400 nM | IC50 [3]: 1400 nM | concentration needed for 50% growth inhibition (ID50) [4]: 510 nM | EC50 [4]: 290 nM | EC50 [5]: 20 nM | IC50 [5]: 18 nM | IC50 [7]: 80 nM

CCNCCCCNCC1CCC1CNCCCCNCC (centres unmarked) [SL-11099]
EC50 [6]: 26300 nM | IC50 [6]: 26300 nM | EC50 [8]: 110 nM | IC50 [8]: 110 nM | EC50 [1]: 210 nM | IC50 [2]: 1000 nM | EC50 [3]: 2500 nM | IC50 [3]: 2500 nM | concentration needed for 50% growth inhibition (ID50) [4]: 650 nM | EC50 [4]: 510 nM | EC50 [5]: 14 nM | IC50 [5]: 14 nM | EC50 [7]: 80 nM | IC50 [7]: 80 nM

CCNCCCCNCC1CCC1CNCCCCNCC (centres unmarked) [SL-11100]
IC50 [6]: > 31200 nM | EC50 [8]: 220 nM | IC50 [8]: 220 nM | EC50 [1]: 700 nM | IC50 [2]: 2000 nM | EC50 [3]: 4700 nM | IC50 [3]: 4700 nM | concentration needed for 50% growth inhibition (ID50) [4]: 2200 nM | EC50 [4]: 650 nM | EC50 [5]: 21 nM | IC50 [5]: 21 nM | EC50 [7]: 300 nM | IC50 [7]: 290 nM

CCNC/C=C\CNC/C=C\CNC/C=C\CNCC [SL-11108]
IC50 [6]: > 31200 nM | EC50 [8]: 2000 nM | IC50 [8]: 2000 nM | EC50 [1]: 7700 nM | IC50 [2]: 2000 nM | EC50 [3]: 2200 nM | IC50 [3]: 2200 nM | concentration needed for 50% growth inhibition (ID50) [4]: >31250 nM | EC50 [5]: 130 nM | IC50 [5]: 130 nM | EC50 [7]: 980 nM | IC50 [7]: 980 nM

CCNC/C=C\CNCCCCNC/C=C\CNCC [SL-11114]
EC50 ([1]; Homo sapiens, 144 h): 3000 nM | IC50 ([2]; Homo sapiens): 3600 nM | EC50 ([3]; Homo sapiens, PC-3, 144 h): 700 nM | IC50 ([3]; Homo sapiens): 700 nM | EC50 ([4]; Homo sapiens, 144 h): > 31200 nM | IC50 ([4]; Homo sapiens): > 31200 nM | EC50 ([5]; Homo sapiens, DU-145, 144 h): 130 nM | IC50 ([5]; Homo sapiens): 135 nM | EC50 ([7]; Homo sapiens, 144 h): 640 nM | IC50 ([7]; Homo sapiens): 640 nM

CCNC/C=C\CNCCCCNCCCCNCC [SL-11118]
EC50 ([1]; Homo sapiens, 144 h): 210 nM | IC50 ([2]; Homo sapiens): 980 nM | EC50 ([3]; Homo sapiens, PC-3, 144 h): 1650 nM | IC50 ([3]; Homo sapiens): 1650 nM | EC50 ([4]; Homo sapiens, 144 h): 214 nM | IC50 ([4]; Homo sapiens): 210 nM | EC50 ([5]; Homo sapiens, DU-145, 144 h): 50 nM | IC50 ([5]; Homo sapiens): 50 nM | EC50 ([7]; Homo sapiens, 144 h): 250 nM | IC50 ([7]; Homo sapiens): 250 nM

CCNC/C=C\CNCCCCNCCCCNCCCCNCC [SL-11121]
EC50 ([6]; Homo sapiens, 144 h): 17000 nM | IC50 ([6]; Homo sapiens): 17000 nM | EC50 ([1]; Homo sapiens, 144 h): 140 nM | IC50 ([2]; Homo sapiens): 800 nM | EC50 ([3]; Homo sapiens, PC-3, 144 h): 520 nM | IC50 ([3]; Homo sapiens): 520 nM | EC50 ([4]; Homo sapiens, 144 h): > 31200 nM | IC50 ([4]; Homo sapiens): > 31200 nM | EC50 ([5]; Homo sapiens, DU-145, 144 h): 80 nM | IC50 ([5]; Homo sapiens): 80 nM | EC50 ([7]; Homo sapiens, 144 h): 400 nM | IC50 ([7]; Homo sapiens): 400 nM

CCNC/C=C\CNC/C=C\CNC/C=C\CNC/C=C\CNCC [SL-11126]
EC50 ([6]; Homo sapiens, 144 h): 700 nM | IC50 ([6]; Homo sapiens): 700 nM | EC50 ([1]; Homo sapiens, 144 h): 550 nM | IC50 ([2]; Homo sapiens): 1500 nM | EC50 ([3]; Homo sapiens, PC-3, 144 h): 200 nM | IC50 ([3]; Homo sapiens): 200 nM | EC50 ([4]; Homo sapiens, 144 h): > 31200 nM | IC50 ([4]; Homo sapiens): > 31200 nM | EC50 ([5]; Homo sapiens, DU-145, 144 h): 510 nM | IC50 ([5]; Homo sapiens): 510 nM | EC50 ([7]; Homo sapiens, 144 h): 1100 nM | IC50 ([7]; Homo sapiens): 1100 nM

CCNC/C=C\CNCCCCNCCCCNC/C=C\CNCC [SL-11128]
EC50 ([1]; Homo sapiens, 144 h): 300 nM | IC50 ([2]; Homo sapiens): 1350 nM | EC50 ([3]; Homo sapiens, PC-3, 144 h): 500 nM | IC50 ([3]; Homo sapiens): 500 nM | EC50 ([5]; Homo sapiens, DU-145, 144 h): 140 nM | IC50 ([5]; Homo sapiens): 140 nM | EC50 ([7]; Homo sapiens, 144 h): 1280 nM | IC50 ([7]; Homo sapiens): 1250 nM
